pIC50, pKd: −log10 of the molar value.
Legend:
[1] = target: MCL1 (Homo sapiens, UniProt Q07820); test: MCL1 affinity assay (competition binding, qPCR readout); conditions: recombinant MCL1, 11-point 3-fold dilution series
Description: Recombinant MCL1, BCL2 and BCXL proteins were prepared in either an E. coli host derived from the BL21 strain or in HEK-293 cells. The recombinant proteins were subsequently tagged with DNA for qPCR detection. Streptavidin-coated magnetic beads were treated for 30 minutes at room temperature with the respective biotinylated peptide ligands for each recombinant protein to generate affinity resins for the assays. The liganded beads were blocked with excess biotin and washed with blocking buffer (SeaBlock (Pierce), 1% BSA, 0.05% Tween 20, 1 mM DTT) to remove unbound ligand and to reduce nonspecific binding. Binding reactions were assembled by combining recombinant protein, liganded affinity beads, and test compounds in 1× binding buffer (20% SeaBlock, 0.17×PBS, 0.05% Tween 20, 6 mM DTT). Test compounds were prepared as 111X stocks in 100% DMSO. The compounds were then diluted directly into the assays such that the final concentration of DMSO was 0.9%. The assay plates were incubated at room temperature with shaking for 1 hour and the affinity beads were washed with wash buffer (1×PBS, 0.05% Tween 20). The beads were then re-suspended in elution buffer (1×PBS, 0.05% Tween 20, 0.5 μM non-biotinylated affinity ligand) and incubated at room temperature with shaking for 30 minutes. The recombinant protein concentration in the eluates was measured by qPCR. Kds were determined using an 11-point 3-fold compound dilution series with three DMSO control points.

[2] = test system: drug-sensitive cell lines of Table 3; test: Cell line growth retardation assay, sensitive cohort; format: cell-based, Human; conditions: for pIC50: Homo sapiens, 144 h, arithmetic mean of IC50s over the sensitive cohort of Table 3, 6 days growth, read-out: AvgSen IC50; for Fold Diff: average IC50 of resistant cohort divided by average IC50 of sensitive cohort
Description: (§1) Cells were seeded at densities of 1,000-5,000 cells per well in 48-well tissue culture plates. After a 24 h rest period, cells were treated with compound at 10 μM, 1 μM, […], 0.08 μM, 0.016 μM, and 0.0032 μM. A group of cells were treated with the vehicle in which the compound was prepared and served as a control. Prior to treatment, cells were counted and this count was used as a baseline for the calculation of growth inhibition. The cells were grown in the presence of compounds for 6 days and were counted on day 6. All cell counting was performed using a Synentec Cellavista plate imager. Growth inhibition was calculated as a ratio of cell population doublings in the presence of compound versus the absence of compound. […] IC50 values for each compound were calculated by fitting curves to data points from each dose-response assay using the Proc NLIN function in SAS for Windows version 9.2 (SAS Institute, Inc.).
(§2) Human cancer cell lines were grouped as “sensitive” or “resistant” to MCL1 inhibition based on whether their growth was retarded by AMG-176 (i.e., (1′S,11R,12S,14E,16S,16aR,18aR)-6′-Chloro-3′,4′,12,13,16,16a,17,18,18a,19-decahydro-16-methoxy-11,12-dimethyl-,Spiro[5,7-etheno-1H,11H-cyclobut[i][1,4]oxazepino[3,4-f][1,2,7]thiadiazacyclohexadecine-2(3H),1′(2′H)-naphthalen]-8(9H)-one 10,10-dioxide) or MIK665 (i.e., (R)-2-((5-(3-chloro-2-methyl-4-(2-(4-methylpiperazin-1-yl)ethoxy)phenyl)-6-(4-fluorophenyl)thieno[2,3-d]pyrimidin-4-yl)oxy)-3-(2-((2-(2-methoxyphenyl)pyrimidin-4-yl)methoxy)phenyl)propanoic acid) (data not shown; see Table 3). These sensitive and resistant cohorts were interrogated for response to each compound, and IC50S were calculated for each cell line using the same technique described above. Average IC50S for the sensitive (“AvgSen IC50”) and resistant (“AvgRes IC50”) cohorts were calculated as arithmetic means of the group, and fold differences (“Fold Diff”) between the resistant and sensitive cohorts were calculated by diving the average IC50 for the resistant cohort by the average IC50 for the sensitive cohort. “A” represents an IC50 of 1 μM or less, “B” represents an IC50 of greater than 1 μM to 5 μM, “C” represents an IC50 of greater than 5 μM, “+” represents a fold difference of 10 or more, and “−” represents a fold difference less than 10.

[3] = test system: drug-resistant cell lines of Table 3; test: Cell line growth retardation assay, resistant cohort; format: cell-based, Human; conditions: Homo sapiens, 144 h; arithmetic mean of IC50s over the resistant cohort of Table 3, 6 days growth; read-out: AvgRes IC50
Description: as §1, §2

Sequence of MCL1 (Q07820 whole entry): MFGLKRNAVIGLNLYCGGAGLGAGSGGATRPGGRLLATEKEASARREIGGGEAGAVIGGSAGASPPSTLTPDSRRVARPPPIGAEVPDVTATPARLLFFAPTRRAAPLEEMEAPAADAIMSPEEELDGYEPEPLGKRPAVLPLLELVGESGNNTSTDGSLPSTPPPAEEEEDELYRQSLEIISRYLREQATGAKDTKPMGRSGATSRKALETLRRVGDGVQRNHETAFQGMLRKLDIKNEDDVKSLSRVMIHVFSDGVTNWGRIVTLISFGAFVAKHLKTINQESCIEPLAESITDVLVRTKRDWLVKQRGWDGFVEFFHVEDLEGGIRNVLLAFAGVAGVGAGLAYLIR

pKd [1] | Structure (SMILES) | pIC50 [2] | Fold Diff [2] | pIC50 [3]
< 5.82 | Cc1c(-c2c(-c3ccc4sccc4c3)ncc3snc(O[C@H](Cc4ccccc4OCc4ccnn4CC(F)(F)F)C(=O)O)c23)ccc(OCCN2CCN(C)CC2)c1Cl (atropisomer, axis not shown) [Compound 8] |  |  | 
≥ 7.00 | CCOc1cc(-c2ncc3snc(O[C@H](Cc4ccccc4OCc4ccnc(-c5ccccc5OC)n4)C(=O)O)c3c2-c2ccc(OCCN3CCN(C)CC3)c(Cl)c2C)ccn1 (atropisomer, axis not shown) [Compound 32] | ≥ 6.00 | + (“+” represents a fold difference of 10 or more) | < 5.30
≥ 7.00 | COc1cc(-c2ncc3snc(O[C@H](Cc4ccccc4OCc4ccnc(-c5ccccc5OC)n4)C(=O)O)c3c2-c2ccc(OCCN3CCN(C)CC3)c(Cl)c2C)ccn1 (atropisomer, axis not shown) [Compound 33] | ≥ 6.00 | + (“+” represents a fold difference of 10 or more) | < 5.30
≥ 7.00 | COc1ccccc1-c1nccc(COc2ccccc2C[C@@H](Oc2nsc3cnc(-c4cccc(F)c4)c(-c4ccc(OCCN5CCN(C)CC5)c(Cl)c4C)c23)C(=O)O)n1 (atropisomer, axis not shown) [Compound 35] | ≥ 6.00 | + (“+” represents a fold difference of 10 or more) | < 5.30
≥ 7.00 | COc1ccccc1-c1nccc(COc2ccccc2C[C@@H](Oc2nsc3cnc(C4CCC4)c(-c4ccc(OCCN5CCN(C)CC5)c(Cl)c4C)c23)C(=O)O)n1 (atropisomer, axis not shown) [Compound 36] | ≥ 6.00 | + (“+” represents a fold difference of 10 or more) | < 5.30
6.30 to 7.00 | COc1cc(-c2ncc3snc(O[C@H](Cc4ccccc4OCc4ccnc(-c5ccccc5OC)n4)C(=O)O)c3c2-c2ccc(OCCN3CCN(C)CC3)c(Cl)c2C)ccc1F (atropisomer, axis not shown) [Compound 37] | < 5.30 | − (“−” represents a fold difference less than 10) | < 5.30
≥ 7.00 | COc1ccccc1-c1nccc(COc2ccccc2C[C@@H](Oc2nsc3cnc(-c4ccn(CC(C)C)n4)c(-c4ccc(OCCN5CCN(C)CC5)c(Cl)c4C)c23)C(=O)O)n1 (atropisomer, axis not shown) [Compound 38] | ≥ 6.00 | + (“+” represents a fold difference of 10 or more) | < 5.30
5.82 to 6.30 | COc1cccc(-c2ncc3snc(O[C@H](Cc4ccccc4OCc4ccnc(-c5ccccc5OC)n4)C(=O)O)c3c2-c2ccc(OCCN3CCN(C)CC3)c(Cl)c2C)c1 (atropisomer, axis not shown) [Compound 39] | 5.30 to 6.00 | − (“−” represents a fold difference less than 10) | 5.30 to 6.00
≥ 7.00 | COc1ccccc1-c1nccc(COc2ccccc2C[C@@H](Oc2nsc3cnc(-c4cccc(F)c4)c(-c4ccc(OCCN(C)C)c(Cl)c4C)c23)C(=O)O)n1 (atropisomer, axis not shown) [Compound 55] | ≥ 6.00 | + (“+” represents a fold difference of 10 or more) | < 5.30
≥ 7.00 | COc1ccccc1-c1nccc(COc2ccccc2C[C@@H](Oc2nsc3cnc(C4CC4)c(-c4ccc(OCCN(C)C)c(Cl)c4C)c23)C(=O)O)n1 (atropisomer, axis not shown) [Compound 56] | ≥ 6.00 | + (“+” represents a fold difference of 10 or more) | < 5.30
≥ 7.00 | COc1cccc(-c2ncc3snc(O[C@H](Cc4ccccc4OCc4ccnc(OCCC(F)(F)F)n4)C(=O)O)c3c2-c2ccc(OCCN3CCN(C)CC3)c(Cl)c2C)c1 (atropisomer, axis not shown) [Compound 57] | ≥ 6.00 | + (“+” represents a fold difference of 10 or more) | < 5.30
6.30 to 7.00 | COc1cccc(-c2ncc3snc(O[C@H](Cc4ccccc4OCc4ccnc(N5CCCC(F)(F)C5)n4)C(=O)O)c3c2-c2ccc(OCCN3CCN(C)CC3)c(Cl)c2C)c1 (atropisomer, axis not shown) [Compound 61] | ≥ 6.00 | + (“+” represents a fold difference of 10 or more) | < 5.30
5.82 to 6.30 | COc1cccc(-c2ncc3snc(O[C@H](Cc4ccccc4OCc4ccnc(N5CCCC(C)(C)C5)n4)C(=O)O)c3c2-c2ccc(OCCN3CCN(C)CC3)c(Cl)c2C)c1 (atropisomer, axis not shown) [Compound 62] | 5.30 to 6.00 | − (“−” represents a fold difference less than 10) | < 5.30
5.82 to 6.30 | COc1cccc(-c2ncc3snc(O[C@H](Cc4ccccc4OCc4ccnc(N5CCC(OC(F)F)CC5)n4)C(=O)O)c3c2-c2ccc(OCCN3CCN(C)CC3)c(Cl)c2C)c1 (atropisomer, axis not shown) [Compound 63] | 5.30 to 6.00 | − (“−” represents a fold difference less than 10) | < 5.30
6.30 to 7.00 | COc1ncccc1-c1nccc(COc2ccccc2C[C@@H](Oc2nsc3cnc(-c4cccc(F)c4)c(-c4ccc(OCCN5CCN(C)CC5)c(Cl)c4C)c23)C(=O)O)n1 (atropisomer, axis not shown) [Compound 64] | < 5.30 | − (“−” represents a fold difference less than 10) | < 5.30
 | COc1ccccc1-c1nccc(COc2ccccc2C[C@@H](Oc2nsc3cnc(C4CCC4)c(-c4ccc(OCCN5CCN(C)CC5)c(Cl)c4C)c23)C(=O)CCc2oc(=O)oc2C)n1 (atropisomer, axis not shown) [Compound 120] | ≥ 6.00 | + (“+” represents a fold difference of 10 or more) | < 5.30
 | Cc1c(-c2c(C3CCC3)ncc3snc(O[C@H](Cc4ccccc4OCc4ccnc(-c5cccc(-c6ccn(C)n6)c5)n4)C(=O)O)c23)ccc(OCCN2CCN(C)CC2)c1Cl (atropisomer, axis not shown) [Compound 121] | ≥ 6.00 | + (“+” represents a fold difference of 10 or more) | < 5.30
 | Cc1c(-c2c(C3CCC3)ncc3snc(O[C@H](Cc4ccccc4OCc4ccnc(-c5ccc(C(=O)N6CCC6)cc5)n4)C(=O)O)c23)ccc(OCCN2CCN(C)CC2)c1Cl (atropisomer, axis not shown) [Compound 122] | ≥ 6.00 | + (“+” represents a fold difference of 10 or more) | < 5.30
 | Cc1c(-c2c(C3CCC3)ncc3snc(O[C@H](Cc4ccccc4OCc4ccnc(-c5ccc(N6CCOCC6)cc5)n4)C(=O)O)c23)ccc(OCCN2CCN(C)CC2)c1Cl (atropisomer, axis not shown) [Compound 123] | ≥ 6.00 | + (“+” represents a fold difference of 10 or more) | < 5.30
 | COc1cccc(-c2ncc3snc(O[C@H](Cc4ccccc4OCc4ccnc(-c5ccccc5OC)n4)C(=O)O)c3c2-c2ccc(OCC3CCCN3C)c(Cl)c2C)c1 (stereo partly shown) [Compound 48] | ≥ 6.00 | + (“+” represents a fold difference of 10 or more) | < 5.30
< 5.82 | CCOC(=O)[C@@H](Cc1ccccc1OCc1ccnc(-c2ccccc2OC)n1)Oc1nsc2cnc(C3CCC3)c(-c3ccc(OCCN4CCN(C)CC4)c(Cl)c3C)c12 [Compound 103] |  |  | 

From patent US20230116602A1, “MCL1 INHIBITORS AND USES THEREOF” (California Institute of Technology, priority 2019, published 2023)
